{"source": "ChEMBL document CHEMBL5653615", "about": "(J Biol Chem, 2013)", "key": {"[1]": {"biological_target": "Insulin receptor-related protein (Homo sapiens) (UniProt P14616)", "sequence (P14616 27-742 limits assumed)": "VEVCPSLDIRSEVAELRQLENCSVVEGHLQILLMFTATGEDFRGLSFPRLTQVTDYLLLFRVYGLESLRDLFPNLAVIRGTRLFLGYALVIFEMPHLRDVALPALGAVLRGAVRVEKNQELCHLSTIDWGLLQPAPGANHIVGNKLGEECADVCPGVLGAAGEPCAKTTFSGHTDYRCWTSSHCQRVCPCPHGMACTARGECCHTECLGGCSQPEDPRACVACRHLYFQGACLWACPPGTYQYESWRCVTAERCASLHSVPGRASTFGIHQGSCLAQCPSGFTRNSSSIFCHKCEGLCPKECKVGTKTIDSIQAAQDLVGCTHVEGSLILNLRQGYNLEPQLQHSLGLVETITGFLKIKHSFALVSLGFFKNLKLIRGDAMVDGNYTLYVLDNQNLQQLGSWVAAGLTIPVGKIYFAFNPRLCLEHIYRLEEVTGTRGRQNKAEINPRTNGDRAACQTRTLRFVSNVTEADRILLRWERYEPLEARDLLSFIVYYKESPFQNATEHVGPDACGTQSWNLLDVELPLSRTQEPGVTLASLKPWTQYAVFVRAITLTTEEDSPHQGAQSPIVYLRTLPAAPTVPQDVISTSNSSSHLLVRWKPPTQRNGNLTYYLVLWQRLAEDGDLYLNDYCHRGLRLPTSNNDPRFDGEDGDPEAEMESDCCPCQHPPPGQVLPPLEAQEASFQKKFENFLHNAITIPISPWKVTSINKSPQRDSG", "sequence (P14616 747-1297 limits assumed)": "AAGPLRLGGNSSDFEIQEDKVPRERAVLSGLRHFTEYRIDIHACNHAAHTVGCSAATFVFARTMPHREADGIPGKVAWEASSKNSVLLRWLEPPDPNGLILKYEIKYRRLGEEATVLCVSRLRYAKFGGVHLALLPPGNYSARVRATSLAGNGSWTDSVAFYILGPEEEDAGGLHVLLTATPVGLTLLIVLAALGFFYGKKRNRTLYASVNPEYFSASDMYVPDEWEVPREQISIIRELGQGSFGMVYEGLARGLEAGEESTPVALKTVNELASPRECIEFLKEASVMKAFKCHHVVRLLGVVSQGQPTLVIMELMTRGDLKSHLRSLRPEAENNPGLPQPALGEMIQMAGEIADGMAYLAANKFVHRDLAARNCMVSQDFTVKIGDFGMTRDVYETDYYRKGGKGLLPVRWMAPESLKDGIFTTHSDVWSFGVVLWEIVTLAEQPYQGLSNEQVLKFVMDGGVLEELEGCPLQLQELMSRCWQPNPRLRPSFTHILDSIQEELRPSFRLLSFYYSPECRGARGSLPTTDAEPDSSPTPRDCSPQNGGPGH", "assay": "Inhibition of human IRR at 18.6 nM by HotSpot assay relative to control"}, "[2]": {"biological_target": "Serine/threonine-protein kinase Nek4 (Homo sapiens) (UniProt P51957)", "sequence (P51957 whole entry, looked up)": "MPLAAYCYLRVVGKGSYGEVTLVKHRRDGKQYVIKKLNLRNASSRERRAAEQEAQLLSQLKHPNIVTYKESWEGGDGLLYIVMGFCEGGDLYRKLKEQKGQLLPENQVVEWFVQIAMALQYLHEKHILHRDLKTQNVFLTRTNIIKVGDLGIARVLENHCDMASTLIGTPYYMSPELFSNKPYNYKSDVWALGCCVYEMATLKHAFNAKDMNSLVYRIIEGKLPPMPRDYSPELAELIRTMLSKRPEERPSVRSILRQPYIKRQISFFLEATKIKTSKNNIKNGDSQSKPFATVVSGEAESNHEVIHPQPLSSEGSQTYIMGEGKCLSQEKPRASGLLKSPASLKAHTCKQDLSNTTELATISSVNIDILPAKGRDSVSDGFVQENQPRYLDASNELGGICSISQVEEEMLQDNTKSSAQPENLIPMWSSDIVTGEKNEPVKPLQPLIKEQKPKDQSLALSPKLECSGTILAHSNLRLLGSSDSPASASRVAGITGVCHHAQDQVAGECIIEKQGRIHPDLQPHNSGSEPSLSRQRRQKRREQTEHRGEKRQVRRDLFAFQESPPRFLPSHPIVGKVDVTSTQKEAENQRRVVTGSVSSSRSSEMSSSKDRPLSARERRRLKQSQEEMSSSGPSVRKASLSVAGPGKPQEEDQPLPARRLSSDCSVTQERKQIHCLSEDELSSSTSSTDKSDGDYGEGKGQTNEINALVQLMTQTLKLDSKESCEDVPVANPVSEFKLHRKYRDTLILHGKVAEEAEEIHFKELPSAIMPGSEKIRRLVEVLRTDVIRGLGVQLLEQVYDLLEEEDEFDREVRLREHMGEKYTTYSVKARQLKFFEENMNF", "assay": "Inhibition of human NEK4 at 18.6 nM by HotSpot assay relative to control"}, "[3]": {"biological_target": "T1, Dual specificity tyrosine-phosphorylation-regulated kinase 2 (Homo sapiens) (UniProt Q92630)", "T1 sequence (whole entry)": "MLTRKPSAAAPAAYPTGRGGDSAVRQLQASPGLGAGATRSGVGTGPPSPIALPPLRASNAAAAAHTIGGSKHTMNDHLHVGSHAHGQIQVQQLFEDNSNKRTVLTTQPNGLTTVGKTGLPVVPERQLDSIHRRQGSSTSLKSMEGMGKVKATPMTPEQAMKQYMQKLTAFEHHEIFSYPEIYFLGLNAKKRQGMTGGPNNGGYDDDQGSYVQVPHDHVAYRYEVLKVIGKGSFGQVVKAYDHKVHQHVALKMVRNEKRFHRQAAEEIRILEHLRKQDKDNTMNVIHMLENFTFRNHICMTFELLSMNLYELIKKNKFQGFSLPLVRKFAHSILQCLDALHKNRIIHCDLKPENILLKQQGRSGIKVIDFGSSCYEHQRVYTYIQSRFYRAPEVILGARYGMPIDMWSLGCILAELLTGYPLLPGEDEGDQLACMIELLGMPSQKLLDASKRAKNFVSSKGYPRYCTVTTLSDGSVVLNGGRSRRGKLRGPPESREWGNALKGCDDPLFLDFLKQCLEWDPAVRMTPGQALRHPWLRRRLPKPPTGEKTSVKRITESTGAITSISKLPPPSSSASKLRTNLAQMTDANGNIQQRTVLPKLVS", "assay": "Inhibition of human DYRK2 at 18.6 nM by HotSpot assay relative to control"}, "[4]": {"biological_target": "Calcium/calmodulin-dependent protein kinase type II subunit gamma (Homo sapiens) (UniProt Q13555)", "sequence (Q13555 whole entry)": "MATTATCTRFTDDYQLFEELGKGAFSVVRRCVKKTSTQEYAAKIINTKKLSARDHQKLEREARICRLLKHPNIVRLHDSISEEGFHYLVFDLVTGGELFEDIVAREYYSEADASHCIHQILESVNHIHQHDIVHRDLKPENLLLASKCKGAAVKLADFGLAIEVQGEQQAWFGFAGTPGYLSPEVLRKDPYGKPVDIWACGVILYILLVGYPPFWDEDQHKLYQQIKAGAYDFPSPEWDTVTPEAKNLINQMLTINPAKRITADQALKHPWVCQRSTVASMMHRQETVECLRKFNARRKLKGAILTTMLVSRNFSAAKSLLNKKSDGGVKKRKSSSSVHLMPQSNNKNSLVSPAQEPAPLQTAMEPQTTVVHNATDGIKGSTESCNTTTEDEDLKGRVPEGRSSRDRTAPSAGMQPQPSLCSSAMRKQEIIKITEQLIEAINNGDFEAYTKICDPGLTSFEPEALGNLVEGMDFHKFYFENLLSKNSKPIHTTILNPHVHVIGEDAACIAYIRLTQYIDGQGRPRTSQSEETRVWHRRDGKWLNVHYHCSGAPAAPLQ", "assay": "Inhibition of human CAMK2g at 18.6 nM by HotSpot assay relative to control"}, "[5]": {"biological_target": "T2, Ephrin type-A receptor 1 (Homo sapiens) (UniProt P21709)", "T2 sequence (whole entry)": "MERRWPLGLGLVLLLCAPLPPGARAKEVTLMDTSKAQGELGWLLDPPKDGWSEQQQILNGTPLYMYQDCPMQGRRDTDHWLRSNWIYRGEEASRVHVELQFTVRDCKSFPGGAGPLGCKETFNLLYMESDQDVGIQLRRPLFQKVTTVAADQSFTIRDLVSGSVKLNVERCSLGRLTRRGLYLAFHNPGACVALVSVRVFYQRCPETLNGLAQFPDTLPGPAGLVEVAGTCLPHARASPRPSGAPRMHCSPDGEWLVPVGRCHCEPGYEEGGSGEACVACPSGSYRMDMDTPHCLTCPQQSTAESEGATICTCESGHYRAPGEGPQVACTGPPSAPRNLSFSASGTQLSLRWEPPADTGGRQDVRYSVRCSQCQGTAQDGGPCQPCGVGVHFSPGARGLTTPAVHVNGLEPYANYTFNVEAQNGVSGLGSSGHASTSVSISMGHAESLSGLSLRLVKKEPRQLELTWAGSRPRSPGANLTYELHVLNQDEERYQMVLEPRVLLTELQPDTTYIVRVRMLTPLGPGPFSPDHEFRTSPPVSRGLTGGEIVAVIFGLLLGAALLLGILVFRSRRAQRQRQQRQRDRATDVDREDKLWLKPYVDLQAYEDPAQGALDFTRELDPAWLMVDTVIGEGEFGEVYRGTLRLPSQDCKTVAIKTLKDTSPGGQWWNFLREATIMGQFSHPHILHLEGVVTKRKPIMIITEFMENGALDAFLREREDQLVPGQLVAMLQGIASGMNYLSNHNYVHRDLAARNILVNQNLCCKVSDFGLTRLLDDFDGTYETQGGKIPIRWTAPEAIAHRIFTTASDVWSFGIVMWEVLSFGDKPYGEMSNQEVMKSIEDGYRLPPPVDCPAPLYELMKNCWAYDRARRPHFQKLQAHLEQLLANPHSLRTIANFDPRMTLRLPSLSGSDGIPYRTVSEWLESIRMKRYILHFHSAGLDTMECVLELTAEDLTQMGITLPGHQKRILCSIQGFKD", "assay": "Inhibition of human EPHA1 at 18.6 nM by HotSpot assay relative to control"}, "[6]": {"biological_target": "Tyrosine-protein kinase ABL1 (Homo sapiens) (UniProt P00519)", "assay": "Inhibition of human ABL1 at 18.6 nM by HotSpot assay relative to control"}, "[7]": {"biological_target": "Calcium/calmodulin-dependent protein kinase kinase 2 (Homo sapiens) (UniProt Q96RR4)", "assay": "Inhibition of human CAMKK2 at 18.6 nM by HotSpot assay relative to control"}, "[8]": {"biological_target": "Mitogen-activated protein kinase kinase kinase 7 (Homo sapiens) (UniProt O43318)", "sequence (O43318 whole entry, looked up)": "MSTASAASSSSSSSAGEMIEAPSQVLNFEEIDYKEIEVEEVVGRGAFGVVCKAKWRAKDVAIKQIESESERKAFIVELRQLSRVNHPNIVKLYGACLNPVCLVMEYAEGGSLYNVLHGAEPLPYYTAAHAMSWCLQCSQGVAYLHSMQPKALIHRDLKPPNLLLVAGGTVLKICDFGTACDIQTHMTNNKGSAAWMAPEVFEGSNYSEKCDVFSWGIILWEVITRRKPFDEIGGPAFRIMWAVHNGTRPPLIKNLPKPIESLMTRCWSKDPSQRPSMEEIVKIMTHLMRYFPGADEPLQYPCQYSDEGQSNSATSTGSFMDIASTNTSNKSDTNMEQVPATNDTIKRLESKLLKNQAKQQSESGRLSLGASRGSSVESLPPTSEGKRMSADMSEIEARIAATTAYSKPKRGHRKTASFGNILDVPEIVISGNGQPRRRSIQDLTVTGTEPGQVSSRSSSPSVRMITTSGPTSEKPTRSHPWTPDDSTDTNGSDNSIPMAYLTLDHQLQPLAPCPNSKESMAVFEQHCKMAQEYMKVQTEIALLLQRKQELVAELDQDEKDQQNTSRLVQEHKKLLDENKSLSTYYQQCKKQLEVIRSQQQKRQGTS", "assay": "Inhibition of human TAK1 at 18.6 nM by HotSpot assay relative to control"}, "[9]": {"biological_target": "Calcium/calmodulin-dependent protein kinase type II subunit gamma (Homo sapiens) (UniProt Q13555)", "assay": "Inhibition of human CAMK2g at 1.82 nM by HotSpot assay relative to control"}, "[10]": {"biological_target": "Wee1-like protein kinase (Homo sapiens) (UniProt P30291)", "sequence (P30291 whole entry, looked up)": "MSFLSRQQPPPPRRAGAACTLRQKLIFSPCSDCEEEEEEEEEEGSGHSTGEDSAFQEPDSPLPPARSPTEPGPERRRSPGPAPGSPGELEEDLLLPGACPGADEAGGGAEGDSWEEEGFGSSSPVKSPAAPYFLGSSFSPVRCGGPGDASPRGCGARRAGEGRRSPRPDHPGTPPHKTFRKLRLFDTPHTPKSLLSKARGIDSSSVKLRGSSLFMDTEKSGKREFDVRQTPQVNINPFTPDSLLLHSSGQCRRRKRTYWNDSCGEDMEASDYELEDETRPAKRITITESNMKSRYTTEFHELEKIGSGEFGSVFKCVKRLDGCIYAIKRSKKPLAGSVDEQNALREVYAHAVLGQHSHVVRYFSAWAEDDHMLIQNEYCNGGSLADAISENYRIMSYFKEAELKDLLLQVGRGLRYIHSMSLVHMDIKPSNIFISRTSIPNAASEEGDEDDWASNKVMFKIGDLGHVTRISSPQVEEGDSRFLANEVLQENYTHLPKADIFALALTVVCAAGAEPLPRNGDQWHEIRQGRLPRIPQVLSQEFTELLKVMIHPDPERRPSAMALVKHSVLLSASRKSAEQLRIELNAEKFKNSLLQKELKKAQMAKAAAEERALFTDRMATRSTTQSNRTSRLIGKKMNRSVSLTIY", "assay": "Inhibition of human WEE1 at 1.82 nM by HotSpot assay relative to control"}, "[11]": {"biological_target": "Fibroblast growth factor receptor 4 (Homo sapiens) (UniProt P22455)", "sequence (P22455 22-802 limits assumed)": "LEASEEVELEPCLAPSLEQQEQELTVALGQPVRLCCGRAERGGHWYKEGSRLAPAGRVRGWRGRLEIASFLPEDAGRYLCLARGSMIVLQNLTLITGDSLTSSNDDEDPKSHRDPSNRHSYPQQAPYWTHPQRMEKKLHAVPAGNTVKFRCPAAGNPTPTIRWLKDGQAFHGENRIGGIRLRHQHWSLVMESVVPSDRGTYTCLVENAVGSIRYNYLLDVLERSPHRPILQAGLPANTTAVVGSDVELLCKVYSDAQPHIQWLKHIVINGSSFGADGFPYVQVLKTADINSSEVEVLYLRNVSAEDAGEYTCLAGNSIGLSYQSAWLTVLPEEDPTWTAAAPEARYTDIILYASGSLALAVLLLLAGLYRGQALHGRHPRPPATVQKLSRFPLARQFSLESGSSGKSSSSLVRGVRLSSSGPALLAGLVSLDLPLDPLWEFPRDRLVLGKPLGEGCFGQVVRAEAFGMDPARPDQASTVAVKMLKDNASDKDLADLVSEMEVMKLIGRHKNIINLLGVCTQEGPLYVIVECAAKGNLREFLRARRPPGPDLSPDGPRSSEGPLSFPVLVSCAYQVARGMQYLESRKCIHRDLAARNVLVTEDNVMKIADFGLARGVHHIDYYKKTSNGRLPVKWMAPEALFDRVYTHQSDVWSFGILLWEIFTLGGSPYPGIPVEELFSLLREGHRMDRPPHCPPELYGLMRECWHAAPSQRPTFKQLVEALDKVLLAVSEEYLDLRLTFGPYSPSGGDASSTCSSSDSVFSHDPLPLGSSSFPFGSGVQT", "assay": "Inhibition of human FGFR4 at 1.82 nM by HotSpot assay relative to control"}, "[12]": {"biological_target": "ALK tyrosine kinase receptor (Homo sapiens) (UniProt Q9UM73)", "assay": "Inhibition of human ALK at 500 nM by HotSpot assay relative to control"}}, "data": [{"smiles": "C[C@]1(O)C[C@@H](c2nc(-c3ccc4ccc(-c5ccccc5)nc4c3)c3c(N)nccn32)C1", "values": [{"measurement": "inhibition", "setting": "[1]", "result": 100, "unit": "%"}, {"measurement": "inhibition", "setting": "[2]", "result": -3.26, "unit": "%"}, {"measurement": "inhibition", "setting": "[3]", "result": -1.48, "unit": "%"}, {"measurement": "inhibition", "setting": "[4]", "result": 2.76, "unit": "%"}, {"measurement": "inhibition", "setting": "[5]", "result": -4.97, "unit": "%"}, {"measurement": "inhibition", "setting": "[6]", "result": 9.07, "unit": "%"}, {"measurement": "inhibition", "setting": "[7]", "result": 28, "unit": "%"}, {"measurement": "inhibition", "setting": "[8]", "result": 1.98, "unit": "%"}]}, {"smiles": "C[C@@]1(C(=O)Nc2ccc(F)nc2)CCCN1c1nc(Nc2cc(C3CC3)n[nH]2)c2cccn2n1", "values": [{"measurement": "inhibition", "setting": "[9]", "result": 4.1, "unit": "%"}, {"measurement": "inhibition", "setting": "[10]", "result": 1.94, "unit": "%"}, {"measurement": "inhibition", "setting": "[11]", "result": 6.74, "unit": "%"}]}, {"smiles": "Nc1n[nH]c2nnc(-c3c(-c4ccccc4)nn4ccccc34)cc12", "values": [{"measurement": "inhibition", "setting": "[12]", "result": -7.89, "unit": "%"}]}]}
